Source: US20070048356A1, “Antimicrobial treatment of nonwoven materials for infection control” (priority 2005, published 2007)

What was measured:
Experiment in all cases: Dynamic Shake Flask (based on ASTM E 2149-01) on treated nonwoven
Format in all cases: cell-based
C. Albicans (ATCC 10231) = conditions: Table 15, SMS
S. aureus (ATCC 6538) = conditions: Table 12
A. Niger (ATCC 16404) = conditions: Table 14, Spunbond
Method: (§1) The test organisms are grown in 25 mL appropriate broth medium for about 24±2 hours at 37±2° C. in a wrist action shaker. The bacterial culture is then transferred by placing about 100 μL aliquot in 25 mL of broth and grown again for about 24±2 hours at 37±2° C. The organisms are then centrifuged and washed three times with phosphate buffered saline (PBS). The organisms are then suspended in PBS to obtain an inoculum of approximately 1×10^8 CFU/mL.
(§2) The test articles and control swatches are exposed to an ultraviolet light source for about 5-10 minutes per side before testing to assure that the swatches are sanitized prior to inoculation with the bacteria. The test materials are brought into contact with a known population of test bacteria from the inoculum for a specified period of time. A sample is then plated at the end of the exposure time to enumerate the surviving bacteria. The log10 reduction form the control material and the original population is calculated using the following formula: Log10 Control*−Log10 CFU/swatch Test Article=Log10 Reduction
[…] This buffer solution contains a chemical to de-activate or “neutralize” the antimicrobial agent to (a) stop the active agent from killing the organisms after the designated time period and (b) to prevent artifacts that may arise from exposing the microorganisms to the antimicrobial in solution rather than solely on the substrate. Because each chemical used as an antimicrobial agent is a little different (ie: cationic, nonionic, metal, etc), a different neutralizer was likely added in each case to shut off the antimicrobial at the desired end point of the experiment. […] The neutralizer employed may be selected from a list that is commonly used in the field. These include, non-ionic degtergents, Bisulphate, lecithin, leethen broth, thiosulfate, thioglycolate, and pH buffers, Method similar to those described in American Society for Testing and Materials, Standard Practices for Evaluating Inactivators of Antimicrobial Agents Used in Disinfectant, Sanitizer, Antiseptic, or Preserved Products, Amer. Soc. Testing Mat. E 1054-91 (1991) can be used.

[1] = tested on: P. aeruginosa (ATCC 9027); conditions: Table 13
Method: as §1, §2
[…] This buffer solution contains a chemical to de-activate or “neutralize” the antimicrobial agent to (a) stop the active agent from killing the organisms after the designated time period and (b) to prevent artifacts that may arise from exposing the microorganisms to the antimicrobial in solution rather than solely on the substrate. Because each chemical used as an antimicrobial agent is a little different (ie: cationic, nonionic, metal, etc), a different neutralizer was likely added in each case to shut off the antimicrobial at the desired end point of the experiment. […] The neutralizer employed may be selected from a list that is commonly used in the field. […] Testing Mat.

| Substance | Dynamic Shake Flask Log10 Reduction (C. Albicans (ATCC 10231); contact time 1 min) [Log10] | Dynamic Shake Flask Log10 Reduction (C. Albicans (ATCC 10231); contact time 5 min) [Log10] | Dynamic Shake Flask Log10 Reduction (C. Albicans (ATCC 10231); contact time 15 min) [Log10] | Dynamic Shake Flask Log10 Reduction (S. aureus (ATCC 6538); Meltblown, contact time 1 min) [Log10] | Dynamic Shake Flask Log10 Reduction (S. aureus (ATCC 6538); Meltblown, contact time 5 min) [Log10] | Dynamic Shake Flask Log10 Reduction (S. aureus (ATCC 6538); Meltblown, contact time 15 min) [Log10] | Dynamic Shake Flask Log10 Reduction (S. aureus (ATCC 6538); SMS, contact time 1 min) [Log10] | Dynamic Shake Flask Log10 Reduction (S. aureus (ATCC 6538); SMS, contact time 5 min) [Log10] | Dynamic Shake Flask Log10 Reduction (S. aureus (ATCC 6538); SMS, contact time 15 min) [Log10] | Dynamic Shake Flask Log10 Reduction (S. aureus (ATCC 6538); Spunbond, contact time 1 min) [Log10] | Dynamic Shake Flask Log10 Reduction (S. aureus (ATCC 6538); Spunbond, contact time 5 min) [Log10] | Dynamic Shake Flask Log10 Reduction (S. aureus (ATCC 6538); Spunbond, contact time 15 min) [Log10] | Dynamic Shake Flask Log10 Reduction (A. Niger (ATCC 16404); contact time 1 min) [Log10] | Dynamic Shake Flask Log10 Reduction (A. Niger (ATCC 16404); contact time 5 min) [Log10] | Dynamic Shake Flask Log10 Reduction (A. Niger (ATCC 16404); contact time 15 min) [Log10] | Dynamic Shake Flask Log10 Reduction ([1]; Meltblown, contact time 1 min) [Log10] | Dynamic Shake Flask Log10 Reduction ([1]; Meltblown, contact time 5 min) [Log10] | Dynamic Shake Flask Log10 Reduction ([1]; Meltblown, contact time 15 min) [Log10] | Dynamic Shake Flask Log10 Reduction ([1]; SMS, contact time 1 min) [Log10] | Dynamic Shake Flask Log10 Reduction ([1]; SMS, contact time 5 min) [Log10] | further results |
| --- | --- | --- | --- | --- | --- | --- | --- | --- | --- | --- | --- | --- | --- | --- | --- | --- | --- | --- | --- | --- | --- |
| Chitosan glycolate [1.0% Chitosan] | 0.04 | 0.13 | 1 | 0.26 | 0.21 | 0.25 | 0.03 | 0.57 | 1.03 | 0 | 0.64 | 2.05 | 0.11 | 0.27 | 0.31 | 0.5 | 0.62 | 0.61 | 0.81 | 4 | Dynamic Shake Flask Log10 Reduction ([1]; SMS, contact time 15 min): 4 Log10; Dynamic Shake Flask Log10 Reduction ([1]; Spunbond, contact time 1 min): 0.47 Log10; Dynamic Shake Flask Log10 Reduction ([1]; Spunbond, contact time 5 min): 2.16 Log10; Dynamic Shake Flask Log10 Reduction ([1]; Spunbond, contact time 15 min): 4 Log10 |
| N-Alkyl Polyglycoside [1.0% Alkyl Polyglycoside] | 0.59 | 0.08 | 0.19 | 2.97 | 4 | 4 | 0 | 0 | 0 | 0 | 0 | 0 | 0.64 | 0.53 | 0.50 | 2.38 | 4 | 4 | 0.37 | 0.37 | Dynamic Shake Flask Log10 Reduction ([1]; SMS, contact time 15 min): 0.36 Log10; Dynamic Shake Flask Log10 Reduction ([1]; Spunbond, contact time 1 min): 0.61 Log10; Dynamic Shake Flask Log10 Reduction ([1]; Spunbond, contact time 5 min): 0.41 Log10; Dynamic Shake Flask Log10 Reduction ([1]; Spunbond, contact time 15 min): 0.41 Log10 |
| PG-Hydroxyethylcellulose Cocodimonium Chloride | 1.25 | 2.12 | 2.56 | 0.09 | 0.2 | 0.44 | 1.38 | 2.97 | 4 | 0.33 | 0.63 | 1.74 | 0.00 | 0.01 | 0.07 | 0.34 | 0.35 | 0.42 | 4 | 4 | Dynamic Shake Flask Log10 Reduction ([1]; SMS, contact time 15 min): 4 Log10; Dynamic Shake Flask Log10 Reduction ([1]; Spunbond, contact time 1 min): 4 Log10; Dynamic Shake Flask Log10 Reduction ([1]; Spunbond, contact time 5 min): 4 Log10; Dynamic Shake Flask Log10 Reduction ([1]; Spunbond, contact time 15 min): 4 Log10 |
